# Values of other authors in patent US20190352602A1, “Methods and Compositions for Producing Germ Cells from Bone Marrow Derived Germline Stem Cells” (The General Hospital Corporation, priority 2004, published 2019).
# System: irradiated testicular tissue
# Conditions: irradiated testicular tissue treated with S1P vs untreated tissues
smiles,measurement,value
"CCCCCCCCCCCCC/C=C/[C@@H](O)[C@@H](N)COP(=O)(O)O [S1P, Sphingosine-1-phosphate]",numbers of primary spermatocytes and spermatogonia,higher than untreated tissues
